{"source": "PubChem BioAssay (NCI)", "assay_in_all_cases": "growth of human tumour cells (NCI), 48 h", "key": {"NCI-H23 lung": {"test_system": "NCI-H23 lung"}, "NCI-H460 lung": {"test_system": "NCI-H460 lung"}, "NCI-H522 lung": {"test_system": "NCI-H522 lung"}, "NCI/ADR-RES ovarian": {"test_system": "NCI/ADR-RES ovarian"}, "OVCAR-3 ovarian": {"test_system": "OVCAR-3 ovarian"}, "OVCAR-4 ovarian": {"test_system": "OVCAR-4 ovarian"}, "OVCAR-5 ovarian": {"test_system": "OVCAR-5 ovarian"}, "OVCAR-8 ovarian": {"test_system": "OVCAR-8 ovarian"}, "PC-3 prostate": {"test_system": "PC-3 prostate"}, "RPMI-8226 leukemia": {"test_system": "RPMI-8226 leukemia"}, "RXF 393 renal": {"test_system": "RXF 393 renal"}, "SF-268 CNS": {"test_system": "SF-268 CNS"}, "SF-295 CNS": {"test_system": "SF-295 CNS"}, "SF-539 CNS": {"test_system": "SF-539 CNS"}, "SK-MEL-2 melanoma": {"test_system": "SK-MEL-2 melanoma"}, "SK-MEL-28 melanoma": {"test_system": "SK-MEL-28 melanoma"}, "SK-MEL-5 melanoma": {"test_system": "SK-MEL-5 melanoma"}, "SK-OV-3 ovarian": {"test_system": "SK-OV-3 ovarian"}, "SN12C renal": {"test_system": "SN12C renal"}, "SNB-19 CNS": {"test_system": "SNB-19 CNS"}, "SNB-75 CNS": {"test_system": "SNB-75 CNS"}, "SR leukemia": {"test_system": "SR leukemia"}, "SW-620 colon": {"test_system": "SW-620 colon"}, "T-47D breast": {"test_system": "T-47D breast"}, "TK-10 renal": {"test_system": "TK-10 renal"}, "U251 CNS": {"test_system": "U251 CNS"}, "UACC-257 melanoma": {"test_system": "UACC-257 melanoma"}, "UACC-62 melanoma": {"test_system": "UACC-62 melanoma"}, "UO-31 renal": {"test_system": "UO-31 renal"}}, "note": "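Tested at 5 concentrations; 48 h exposure; 96-well plates; endpoints linearly interpolated, else capped at highest concentration. GI50 is the concentration that inhibits growth by half. At the TGI there is no net growth.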"}
{"compound": "Clc1cccc(-c2cc(-c3ccc4c(c3)OCCO4)[nH]n2)c1", "values": [{"measurement": "GI50", "setting": "NCI-H23 lung", "result": 8.66, "unit": "µM"}, {"measurement": "TGI", "setting": "NCI-H23 lung", "result": 57.4, "unit": "µM"}, {"measurement": "GI50", "setting": "NCI-H460 lung", "result": 1.01, "unit": "µM"}, {"measurement": "TGI", "setting": "NCI-H460 lung", "result": 31.8, "unit": "µM"}, {"measurement": "GI50", "setting": "NCI-H522 lung", "result": 1.48, "unit": "µM"}, {"measurement": "TGI", "setting": "NCI-H522 lung", "result": 37.2, "unit": "µM"}, {"measurement": "GI50", "setting": "NCI/ADR-RES ovarian", "result": 1.11, "unit": "µM"}, {"measurement": "TGI", "setting": "NCI/ADR-RES ovarian", "result": 33.8, "unit": "µM"}, {"measurement": "GI50", "setting": "OVCAR-3 ovarian", "result": 1.95, "unit": "µM"}, {"measurement": "TGI", "setting": "OVCAR-3 ovarian", "result": 31.3, "unit": "µM"}, {"measurement": "GI50", "setting": "OVCAR-4 ovarian", "result": 13.8, "unit": "µM"}, {"measurement": "TGI", "setting": "OVCAR-4 ovarian", "result": 49.5, "unit": "µM"}, {"measurement": "GI50", "setting": "OVCAR-5 ovarian", "result": 10.4, "unit": "µM"}, {"measurement": "TGI", "setting": "OVCAR-5 ovarian", "result": 47.7, "unit": "µM"}, {"measurement": "GI50", "setting": "OVCAR-8 ovarian", "result": 6.74, "unit": "µM"}, {"measurement": "TGI", "setting": "OVCAR-8 ovarian", "result": 53.3, "unit": "µM"}, {"measurement": "GI50", "setting": "PC-3 prostate", "result": 4.87, "unit": "µM"}, {"measurement": "TGI", "setting": "PC-3 prostate", "result": 45.8, "unit": "µM"}, {"measurement": "GI50", "setting": "RPMI-8226 leukemia", "result": 6.38, "unit": "µM"}, {"measurement": "TGI", "setting": "RPMI-8226 leukemia", "result": 250, "unit": "µM"}, {"measurement": "GI50", "setting": "RXF 393 renal", "result": 7.34, "unit": "µM"}, {"measurement": "TGI", "setting": "RXF 393 renal", "result": 46.1, "unit": "µM"}, {"measurement": "GI50", "setting": "SF-268 CNS", "result": 12.4, "unit": "µM"}, {"measurement": "TGI", "setting": "SF-268 CNS", "result": 57.1, "unit": "µM"}, {"measurement": "GI50", "setting": "SF-295 CNS", "result": 9.71, "unit": "µM"}, {"measurement": "TGI", "setting": "SF-295 CNS", "result": 45.1, "unit": "µM"}, {"measurement": "GI50", "setting": "SF-539 CNS", "result": 6.31, "unit": "µM"}, {"measurement": "TGI", "setting": "SF-539 CNS", "result": 36.1, "unit": "µM"}, {"measurement": "GI50", "setting": "SK-MEL-2 melanoma", "result": 18.9, "unit": "µM"}, {"measurement": "TGI", "setting": "SK-MEL-2 melanoma", "result": 74.9, "unit": "µM"}, {"measurement": "GI50", "setting": "SK-MEL-28 melanoma", "result": 27.2, "unit": "µM"}, {"measurement": "TGI", "setting": "SK-MEL-28 melanoma", "result": 57, "unit": "µM"}, {"measurement": "GI50", "setting": "SK-MEL-5 melanoma", "result": 5.9, "unit": "µM"}, {"measurement": "TGI", "setting": "SK-MEL-5 melanoma", "result": 39.1, "unit": "µM"}, {"measurement": "GI50", "setting": "SK-OV-3 ovarian", "result": 5.42, "unit": "µM"}, {"measurement": "TGI", "setting": "SK-OV-3 ovarian", "result": 46.7, "unit": "µM"}, {"measurement": "GI50", "setting": "SN12C renal", "result": 5.38, "unit": "µM"}, {"measurement": "TGI", "setting": "SN12C renal", "result": 40.1, "unit": "µM"}, {"measurement": "GI50", "setting": "SNB-19 CNS", "result": 21.6, "unit": "µM"}, {"measurement": "TGI", "setting": "SNB-19 CNS", "result": 59.3, "unit": "µM"}, {"measurement": "GI50", "setting": "SNB-75 CNS", "result": 2.24, "unit": "µM"}, {"measurement": "TGI", "setting": "SNB-75 CNS", "result": 34.8, "unit": "µM"}, {"measurement": "GI50", "setting": "SR leukemia", "result": 0.988, "unit": "µM"}, {"measurement": "TGI", "setting": "SR leukemia", "result": 98.3, "unit": "µM"}, {"measurement": "GI50", "setting": "SW-620 colon", "result": 1.09, "unit": "µM"}, {"measurement": "TGI", "setting": "SW-620 colon", "result": 44.9, "unit": "µM"}, {"measurement": "GI50", "setting": "T-47D breast", "result": 3.64, "unit": "µM"}, {"measurement": "TGI", "setting": "T-47D breast", "result": 53.8, "unit": "µM"}, {"measurement": "GI50", "setting": "TK-10 renal", "result": 13.9, "unit": "µM"}, {"measurement": "TGI", "setting": "TK-10 renal", "result": 56.1, "unit": "µM"}, {"measurement": "GI50", "setting": "U251 CNS", "result": 6.83, "unit": "µM"}, {"measurement": "TGI", "setting": "U251 CNS", "result": 43, "unit": "µM"}, {"measurement": "GI50", "setting": "UACC-257 melanoma", "result": 25.4, "unit": "µM"}, {"measurement": "TGI", "setting": "UACC-257 melanoma", "result": 55.3, "unit": "µM"}, {"measurement": "GI50", "setting": "UACC-62 melanoma", "result": 2, "unit": "µM"}, {"measurement": "TGI", "setting": "UACC-62 melanoma", "result": 44.8, "unit": "µM"}, {"measurement": "GI50", "setting": "UO-31 renal", "result": 9.27, "unit": "µM"}, {"measurement": "TGI", "setting": "UO-31 renal", "result": 43.9, "unit": "µM"}]}
